# In US9926297B2, “Bicyclic AZA compounds as muscarinic M1 receptor and/or M4 receptor agonists” (Heptares Therapeutics Limited, priority 2014, dated 2018):
# Columns and labels:
# [1] = target: T1, human muscarinic M1 receptor (Homo sapiens, UniProt P11229); assay: Alphascreen Surefire phospho-ERK1/2 functional assay, M1; assay type: cell-based; details: for EC50: read-out: pEC50 M1 (converted); for % Emax cf. ACh, M1 / Emax: relative to ACh; for Emax: CHO, read-out: % Emax cf. ACh, M1, CHO cells stably expressing human M1
# T1 sequence (P11229 1-460): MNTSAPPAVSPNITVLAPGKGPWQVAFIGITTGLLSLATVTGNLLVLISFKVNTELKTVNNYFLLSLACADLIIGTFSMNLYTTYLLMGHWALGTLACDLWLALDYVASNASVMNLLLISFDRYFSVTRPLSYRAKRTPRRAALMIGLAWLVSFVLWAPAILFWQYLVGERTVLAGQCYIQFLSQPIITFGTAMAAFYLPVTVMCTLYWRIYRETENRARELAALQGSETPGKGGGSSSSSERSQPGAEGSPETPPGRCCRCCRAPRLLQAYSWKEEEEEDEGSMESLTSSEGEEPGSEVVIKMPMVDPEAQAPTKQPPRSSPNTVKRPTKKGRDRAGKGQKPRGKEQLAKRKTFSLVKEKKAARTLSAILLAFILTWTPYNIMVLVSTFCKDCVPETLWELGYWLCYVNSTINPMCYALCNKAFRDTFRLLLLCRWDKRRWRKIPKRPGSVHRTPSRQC
# [2] = target: T2, human muscarinic M4 receptor (Homo sapiens, UniProt P08173); assay: Alphascreen Surefire phospho-ERK1/2 functional assay, M4; assay type: cell-based; details: for EC50 / % Emax cf. ACh, M4: CHO cells stably expressing human M4; for EC50: phospho-ERK1/2, * = variable results, read-out: pEC50 M4 (converted); for % Emax cf. ACh, M4 / Emax: relative to ACh; for Emax: CHO, read-out: % Emax cf. ACh, M4, CHO cells stably expressing human M4
# T2 construct: expressed in transfected cells
# T2 sequence (P08173 1-479): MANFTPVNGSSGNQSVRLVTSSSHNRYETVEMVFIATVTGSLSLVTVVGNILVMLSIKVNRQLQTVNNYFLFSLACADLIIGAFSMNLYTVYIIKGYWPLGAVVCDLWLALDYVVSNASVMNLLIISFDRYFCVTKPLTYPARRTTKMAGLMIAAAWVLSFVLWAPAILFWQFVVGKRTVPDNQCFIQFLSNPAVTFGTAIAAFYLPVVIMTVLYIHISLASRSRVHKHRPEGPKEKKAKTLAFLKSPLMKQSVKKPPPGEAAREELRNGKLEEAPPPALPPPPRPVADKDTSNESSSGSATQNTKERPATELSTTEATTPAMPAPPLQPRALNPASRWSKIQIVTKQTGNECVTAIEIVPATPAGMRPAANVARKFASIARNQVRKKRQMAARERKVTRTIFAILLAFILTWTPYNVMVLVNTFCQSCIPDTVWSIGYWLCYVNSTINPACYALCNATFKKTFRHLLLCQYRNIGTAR
# [3] = CHO cells stably expressing human M1, phospho-ERK1/2, * = variable results
# [4] = CHO cells stably expressing human M1
SMILES,"EC50 [1, 3] [nM]","% Emax cf. ACh, M1 [1, 4] [%]",EC50 [2] [nM],"% Emax cf. ACh, M4 [2] [%]",Emax [1] [%],Emax [2] [%],"pEC50 M1 [1, 3]"
"CCOC(=O)N1CCC2(CC(N3CCC(N4CCCC4c4nnnn4C)CC3)C2)C1 (single isomer, unassigned) [2-130 Isomer 1, ethyl 2-{4-[2-(1-methyl-1H-tetrazol-5-yl)pyrrolidin-1-yl]piperidin-1-yl}-6-azaspiro[3.4]octane-6-carboxylate]",316,42,12.6,20,–,–,–
"CCOC(=O)N1CCC2(CC(N3CCC(N4CCCC4c4nnnn4C)CC3)C2)C1 (single isomer, unassigned) [2-130 Isomer 2, ethyl 2-{4-[2-(1-methyl-1H-tetrazol-5-yl)pyrrolidin-1-yl]piperidin-1-yl}-6-azaspiro[3.4]octane-6-carboxylate]",> 20000,11,63.1,66,–,–,–
"CCOC(=O)N1CCC2(CC(N3CCC(N4CCC[C@@H]4c4cccs4)CC3)C2)C1 (single isomer, unassigned) [2-131 Isomer 2]",501,–,158,–,61,108,–
"CCOC(=O)N1CCC2(CC(N3CCC(N4CCC[C@@H]4c4nccs4)CC3)C2)C1 (single isomer, unassigned) [2-132 Isomer 2]",> 20000,–,12.6,–,18,72,–
"CCOC(=O)N1CCC2(CC(N3CCC([C@@H]4CCCN4C(=O)N4Cc5cccnc5C4)CC3)C2)C1 (single isomer, unassigned) [2-133 Isomer 1]",> 20000,37,10,70,–,–,–
"CCOC(=O)N1CCC2(CC(N3CCC([C@@H]4CCCN4C(=O)N4Cc5cccnc5C4)CC3)C2)C1 (single isomer, unassigned) [2-133 Isomer 2]",79.4,69,0.631,118,–,–,–
"CCOC(=O)N1CCC2(CC(N3CCC(N4C[C@H](F)C[C@@H]4C(=O)OC)CC3)C2)C1 (single isomer, unassigned) [2-134 Isomer 2]",> 20000,–,63.1,–,18,95,–
"CCOC(=O)N1CCC2(CC(N3CCC(N4C[C@@H](F)C[C@@H]4C(=O)OC)CC3)C2)C1 (single isomer, unassigned) [2-135 Isomer 2]",> 20000,–,12.6,–,15,90,–
"CCOC(=O)N1CCC2(CC(N3CCC(N4C[C@H](F)C[C@@H]4CO)CC3)C2)C1 (single isomer, unassigned) [2-136 Isomer 2]",631,–,12.6,–,–,–,–
"CCOC(=O)N1CCC2(CC(N3CCC(N4C[C@@H](F)C[C@@H]4CO)CC3)C2)C1 (single isomer, unassigned) [2-137 Isomer 2]",1000,–,39.8,–,78,111,–
"CCOC(=O)N1CCC2(CC(N3CCC([C@@H]4CCCN4c4nnc(C)o4)CC3)C2)C1 (single isomer, unassigned) [2-138 Isomer 2]",> 20000,–,39.8,–,17,44,–
"CCOC(=O)N1CCC2(CC(N3CCC(c4cnc(OC)c(C)c4)CC3)C2)C1 (single isomer, unassigned) [3-7 Isomer 2, ethyl 2-[4-(6-methoxy-5-methylpyridin-3-yl)piperidin-1-yl]-6-azaspiro[3.4]octane-6-carboxylate]",> 20000,–,100,–,40,39,–
"CCOC(=O)N1CCC2(CC(N3CCC(c4c(C)ccnc4OC)CC3)C2)C1 (single isomer, unassigned) [3-11 Isomer 2, ethyl 2-[4-(2-methoxy-4-methylpyridin-3-yl)piperidin-1-yl]-6-azaspiro[3.4]octane-6-carboxylate]",39.8,–,25.1,–,36,58,–
"CCOC(=O)N1CCC2(CC(N3CCC(c4c(C)cc[nH]c4=O)CC3)C2)C1 (single isomer, unassigned) [3-14 Isomer 1, ethyl 2-[4-(4-methyl-2-oxo-1,2-dihydropyridin-3-yl)piperidin-1-yl]-6-azaspiro[3.4]octane-6-carboxylate]",3160,65,501,–,–,65,–
"CCOC(=O)N1CCC2(CC(N3CCC(c4c(C)cc[nH]c4=O)CC3)C2)C1 (single isomer, unassigned) [3-14 Isomer 2, ethyl 2-[4-(4-methyl-2-oxo-1,2-dihydropyridin-3-yl)piperidin-1-yl]-6-azaspiro[3.4]octane-6-carboxylate]",–,29,251,75,–,–,5.5
"CCOC(=O)N1CCC2(CC(N3CCC(c4cc(C)c[nH]c4=O)CC3)C2)C1 (single isomer, unassigned) [3-15 Isomer 2, ethyl 2-[4-(5-methyl-2-oxo-1,2-dihydropyridin-3-yl)piperidin-1-yl]-6-azaspiro[3.4]octane-6-carboxylate]",251,–,39.8,–,60,36,–
"CCOC(=O)N1CCC2(CC(N3CCC(c4cc[nH]c(=O)c4)CC3)C2)C1 (single isomer, unassigned) [3-16 Isomer 2, ethyl 2-[4-(2-oxo-1,2-dihydropyridin-4-yl)piperidin-1-yl]-6-azaspiro[3.4]octane-6-carboxylate]",7940,–,2510,–,39,47,–
"CCOC(=O)N1CCC2(CC(N3CCC(C4CCCNC4=O)CC3)C2)C1 (single isomer, unassigned) [4-1 Isomer 2, ethyl 2-(2-oxo-3,4′-bipiperidin-1′-yl)-6-azaspiro[3.4]octane-6-carboxylate]",> 20000,10,69.2,47,–,–,–
"COC(=O)N1CCC2(CC(N3CCC(C4CCCNC4=O)CC3)C2)C1 (single isomer, unassigned) [4-2 Isomer 4, methyl 2-(2-oxo-3,4′-bipiperidin-1′-yl)-6-azaspiro[3.4]octane-6-carboxylate]",794,–,79.4,–,94,42,–
"CCOC(=O)N1CCC2(CC(N3CCC(N4CCCCC4)CC3)C2)C1 (single isomer, unassigned) [4-10 Isomer 2, ethyl 2-(1,4′-bipiperidin-1′-yl)-6-azaspiro[3.4]octane-6-carboxylate]",> 20000,–,251,–,7,31,–
"CCOC(=O)N1CCC2(CC(N3CCC(N4CCOCC4)CC3)C2)C1 (single isomer, unassigned) [4-11 Isomer 2, ethyl 2-[4-(morpholin-4-yl)piperidin-1-yl]-6-azaspiro[3.4]octane-6-carboxylate]",> 20000,–,200,–,54,55,–
"CCOC(=O)N1CCC2(CC(N3CCC(N4CCCC[C@@H]4C(=O)NC)CC3)C2)C1 (single isomer, unassigned) [4-16 Isomer 2]",1000,–,158,–,94,105,–
"CCOC(=O)N1CCC2(CC(N3CCC(N4CCCC[C@@H]4C(=O)N(C)C)CC3)C2)C1 (single isomer, unassigned) [4-17 Isomer 2]",> 20000,–,251,–,27,106,–
"CCOC(=O)N1CCC2(CC(N3CCC(N4CCCC[C@H]4C(=O)NC)CC3)C2)C1 (single isomer, unassigned) [4-18 Isomer 2]",3160,–,631,–,76,79,–
"CCOC(=O)N1CCC2(CC(N3CCC(C4CCCCN4C(=O)CC)CC3)C2)C1 (single isomer, unassigned) [4-19 Isomer 2, ethyl 2-(1-propanoyl-2,4′-bipiperidin-1′-yl)-6-azaspiro[3.4]octane-6-carboxylate]",> 20000,–,251,–,7,38,–
"CCOC(=O)N1CCC2(CC(N3CCC(C4CCCCN4C(=O)NC)CC3)C2)C1 (single isomer, unassigned) [4-20 Isomer 2, ethyl 2-[1-(methylcarbamoyl)-2,4′-bipiperidin-1′-yl]-6-azaspiro[3.4]octane-6-carboxylate]",> 20000,–,158,–,11,34,–
